Experimental data as given in article PMC8037814, “Polymorphic Characterization, Pharmacokinetics, and Anti-Inflammatory Activity of Ginsenoside Compound K Polymorphs” (Molecules, 2021).
Several values for one entry are separate records, joined by “and”; a condition that tells them apart may be missing. Equal entries are not always repeated.

Key:
[1] = cited from earlier work
[2] = Pharmacokinetics after oral administration of CK polymorphs in rats (20 mg/kg); format: in vivo, Sprague-Dawley rats; details: for Fabs (absolute bioavailability): p.o. 20 mg/kg vs i.v. 10 mg/kg, dose-adjusted AUC ratio
[3] = test system: carrageenan-induced acute paw inflammation; test: Paw swelling test induced by carrageenan in rats; format: in vivo, Sprague-Dawley rats; parameters: paw volume: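 right hind paw volume measured with a plethysmometer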; details: for paw volume / paw edema: mean±SD of 6 rats; for edema inhibition: versus model group
Method in brief: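 Rats (six per group, half of each sex) received compound at 10 or 20 mg/kg, suspended in 0.5% CMC-Na, before carrageenan challenge. Paw edema (%) = (Vn − V0)/V0 × 100 over time; inhibitory rate relative to model group, compared by t-test.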

[4] = Pharmacokinetics after oral administration of CK polymorphs in rats (20 mg/kg); format: in vivo, Sprague-Dawley rats; details: p.o. 20 mg/kg, individual rats 1-3
[5] = DSC thermal analysis of CK polymorphs; format: physicochemical; details: 20 K/min from 20 to 400 °C, dry nitrogen flow
Description: DSC measurements were performed on a DSC204 Phoenix calorimeter (NETZSCH, Selb, Germany) with a heating rate of 20 K/min from 20 to 400 °C. The dry nitrogen flow was about 50 mL/min. Data were analyzed using NETZSCH analysis software.

[6] = female rats, p.o. 20 mg/kg, mean ± SD (n = 3), 20 mg/kg
[7] = male rats, p.o. 20 mg/kg, mean ± SD (n = 3), 20 mg/kg
[8] = 10 mg/kg p.o. qd 3 days, 3h after carrageenan, listed as From II
[9] = 10 mg/kg p.o. qd 3 days, 4h after carrageenan, listed as From II
[10] = 10 mg/kg p.o. qd 3 days, 5h after carrageenan, listed as From II
[11] = 10 mg/kg p.o. qd 3 days, 6h after carrageenan, listed as From II
[12] = 20 mg/kg p.o. qd 3 days, 3h after carrageenan, listed as From II
[13] = 20 mg/kg p.o. qd 3 days, 4h after carrageenan
[14] = 20 mg/kg p.o. qd 3 days, 4h after carrageenan, listed as From II
[15] = 20 mg/kg p.o. qd 3 days, 5h after carrageenan, listed as From II
[16] = 20 mg/kg p.o. qd 3 days, 6h after carrageenan, listed as From II

In the case of CC(C)=CCCC(C)(OC1OC(CO)C(O)C(O)C1O)C1CCC2(C)C1C(O)CC1C3(C)CCC(O)C(C)(C)C3CCC12C [CK, 20-O-β-D-glucopyranosyl-20(S)-protopanaxadiol], the “exposure levels of CK in females versus males” value ([1]; healthy Chinese subjects) is listed as “higher” and the “dose-normalized Cmax and t1/2 in females versus males” value ([1]; multiple-dose trial in humans, day 1 and day 15) is listed as “significantly higher”.
With CC(C)=CCCC(C)(OC1OC(CO)C(O)C(O)C1O)C1CCC2(C)C1C(O)CC1C3(C)CCC(O)C(C)(C)C3CCC12C [Form II, 20-O-β-D-glucopyranosyl-20(S)-protopanaxadiol] the “maximum differences of the average Cmax and AUC(0–∞) values, form II compared to form IV” value ([2]; female groups, p.o. 20 mg/kg) was 2.1 fold, the “Fabs (absolute bioavailability)” value ([2]; female rats) was 7.87% and the t1/2z ([2]; female rats, p.o. 20 mg/kg, individual rats 1-3, 20 mg/kg) was 3.96 h and 2.99 h and 2.49 h. The “AUC(0–t)” value [2, 6] was 2447.2 ± 1828.5 ng·h/mL, the “AUC(0–∞)” value [2, 6] was 2551.23 ± 1967.99 ng·h/mL and 2551.2 ± 1968.0 ng·h/mL and the CLz/F [2, 6] was 180 ± 96.5 mL/min/kg. The Cmax [2, 6] was 459.59 ± 289.63 ng/mL and 459.6 ± 289.6 ng/mL, the Vz/F [2, 6] was 45.3 ± 20.0 L/kg and the t1/2z [2, 6] was 3.15 ± 0.75 h and 3.2 ± 0.75 h. For the same compound, the AUC(0-t) ([2]; female, Sprague-Dawley, rat, plasma, po, 20 mg/kg, female rats, p.o. 20 mg/kg, mean ± SD (n = 3)) was 2450 ± 1830 ng·h/mL, the CL/F ([2]; female, Sprague-Dawley, rat, plasma, po, 20 mg/kg, female rats, p.o. 20 mg/kg, mean ± SD (n = 3), read-out: CLz/F (converted)) was 180 mL/min/kg and the “maximum differences of the average Cmax and AUC(0–∞) values, form II compared to form IV” value ([2]; male groups, p.o. 20 mg/kg) was 1.6 fold. For the same compound, the “Fabs (absolute bioavailability)” value ([2]; male rats) was 4.07%, the Vz/F ([2]; male rats, p.o. 20 mg/kg, individual rats 1-3, 20 mg/kg) was 102.18 L/kg and 80.31 L/kg and 39.93 L/kg and the “AUC(0–t)” value [2, 7] was 1191.06 ± 471.90 ng·h/mL and 1191.1 ± 471.90 ng·h/mL. For the same compound, the “AUC(0–∞)” value [2, 7] was 1235.2 ± 474.45 ng·h/mL, the CLz/F [2, 7] was 299.5 ± 118 mL/min/kg and 300 ± 118 mL/min/kg and the Cmax [2, 7] was 232.33 ± 68.97 ng/mL and 232.3 ± 68.97 ng/mL. For the same compound, the Vz/F [2, 7] was 74.14 ± 31.58 L/kg and 74.1 ± 31.6 L/kg, the t1/2z [2, 7] was 2.93 ± 1.14 h and 2.9 ± 1.1 h and the AUC(0-inf) ([2]; male, Sprague-Dawley, rat, plasma, po, 20 mg/kg, male rats, p.o. 20 mg/kg, mean ± SD (n = 3)) was 1240 ± 474 ng·h/mL. For the same compound, the paw volume ([3]; 10 mg/kg p.o. qd 3 days, 0h (before carrageenan), listed as From II) was 1.57±0.12, the paw edema [3, 8] was 55.25±18.20% and the paw volume [3, 8] was 2.41±0.16. It also gave an edema inhibition [3, 8] of 14.03%, a paw edema [3, 9] of 47.34±11.94% and a paw volume [3, 9] of 2.30±0.14. It also gave an edema inhibition [3, 9] of 24.09%, a paw edema [3, 10] of 33.73±13.72% and a paw volume [3, 10] of 2.08±0.12. The edema inhibition [3, 10] was 34.84%, the paw edema [3, 11] was 27.25±10.94% and the paw volume [3, 11] was 1.98±0.08. The edema inhibition [3, 11] was 30.70%, the paw volume ([3]; 20 mg/kg p.o. qd 3 days, 0h (before carrageenan), listed as From II) was 1.65±0.14 and the paw edema [3, 12] was 45.81±8.11%. It also gave a paw volume [3, 12] of 2.40±0.15, an edema inhibition [3, 12] of 28.72% and a paw edema [3, 13] of 39.7 ± 6.4%. The paw edema [3, 14] was 39.71±6.48%, the paw volume [3, 14] was 2.30±0.14 and the edema inhibition [3, 13] was 36.3%. The edema inhibition [3, 14] was 36.33%, the paw edema [3, 15] was 29.62±8.06% and the paw volume [3, 15] was 2.13±0.15. The edema inhibition ([3]; 20 mg/kg p.o. qd 3 days, 5h after carrageenan) was 42.7%, the edema inhibition [3, 15] was 42.77% and the paw edema [3, 16] was 23.59±8.59%. It also gave a paw volume [3, 16] of 2.03±0.14, an edema inhibition ([3]; 20 mg/kg p.o. qd 3 days, 6h after carrageenan) of 40.0% and an edema inhibition [3, 16] of 40.00%. For the same compound, the “AUC(0-t)” value ([4]; female rats) was 4557.73 ng·h/mL and 1338.42 ng·h/mL and 1445.59 ng·h/mL, the “AUC(0-∞)” value ([4]; female rats) was 4823.11 ng·h/mL and 1371.40 ng·h/mL and 1459.17 ng·h/mL and the CLz/F ([4]; female rats) was 69.2 mL/min/kg and 243 mL/min/kg and 228.5 mL/min/kg. The Cmax ([4]; female rats) was 777.00 ng/mL and 209.65 ng/mL and 392.12 ng/mL, the Vz/F ([4]; female rats) was 23.70 L/kg and 62.95 L/kg and 49.26 L/kg and the “AUC(0-t)” value ([4]; male rats) was 1095.34 ng·h/mL and 774.36 ng·h/mL and 1703.47 ng·h/mL. The “AUC(0-∞)” value ([4]; male rats) was 1198.51 ng·h/mL and 780.14 ng·h/mL and 1726.92 ng·h/mL, the CLz/F ([4]; male rats) was 278.2 mL/min/kg and 427.3 mL/min/kg and 193 mL/min/kg and the Cmax ([4]; male rats) was 187.99 ng/mL and 197.22 ng/mL and 311.79 ng/mL. The t1/2z ([4]; male rats) was 2.17 h and 2.39 h and 4.24 h and the “DSC onset of the decomposition endotherm (thermodynamical stability)” value [5] was 263.1 °C.
